Test results: PubChem BioAssay (NCI)
Values joined by “and” are separate entries in the source; they are usually repeats but may differ in a detail not shown here. Equal entries are not always repeated.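 48-hour exposure; five concentrations; linearly interpolated endpoints. Here, GI50 denotes the concentration required for 50% inhibition of growth. TGI is the concentration that stops growth completely.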

How the values were obtained:
Assay in all cases: NCI-60 cell line screen, 48 h
HT29 colon = tested on: HT29 colon
HS 578T breast = tested on: HS 578T breast
NCI-H23 lung = tested on: NCI-H23 lung
UO-31 renal = tested on: UO-31 renal
SK-MEL-2 melanoma = tested on: SK-MEL-2 melanoma
HCT-15 colon = tested on: HCT-15 colon
COLO 205 colon = tested on: COLO 205 colon
MDA-MB-231 breast = tested on: MDA-MB-231 breast
HL-60(TB) leukemia = tested on: HL-60(TB) leukemia
DU-145 prostate = tested on: DU-145 prostate

Molecule `N#Cc1ccc2[nH]c3c(c2c1)CC(=O)Nc1ccccc1-3` has a TGI (HT29 colon) greater than 100 µM, a TGI (HS 578T breast) greater than 100 µM and a TGI (NCI-H23 lung) greater than 100 µM. It also gave a TGI (UO-31 renal) greater than 100 µM, a TGI (SK-MEL-2 melanoma) greater than 100 µM and a TGI (HCT-15 colon) greater than 100 µM. For the same molecule, the TGI (COLO 205 colon) was greater than 100 µM, the TGI (MDA-MB-231 breast) was greater than 100 µM and the TGI (HL-60(TB) leukemia) was greater than 100 µM.
`O=C(c1ccccc1)c1c(C(F)(F)F)n([O-])c2cc(F)c(F)cc2[n+]1=O` was tested, and the TGI (HT29 colon) was greater than 100 µM, the TGI (HS 578T breast) was 2.48 µM and the TGI (NCI-H23 lung) was 0.789 µM. For the same molecule, the TGI (UO-31 renal) was 2.4 µM, the TGI (SK-MEL-2 melanoma) was 4.44 µM and the TGI (COLO 205 colon) was greater than 69.6 µM. It also gave a TGI (DU-145 prostate) of 8.71 µM and a TGI (HL-60(TB) leukemia) of 1.55 µM.
`COc1cc2[nH]c(=O)c3cc(C)cc4c(Cl)nc(c1OC)c2c43` gave a TGI (HT29 colon) greater than 100 µM, a TGI (NCI-H23 lung) greater than 100 µM and a TGI (UO-31 renal) greater than 100 µM. The TGI (SK-MEL-2 melanoma) was greater than 100 µM, the TGI (HCT-15 colon) was greater than 100 µM and the TGI (COLO 205 colon) was greater than 100 µM. For the same molecule, the TGI (MDA-MB-231 breast) was greater than 100 µM, the TGI (DU-145 prostate) was greater than 100 µM and the TGI (HL-60(TB) leukemia) was greater than 100 µM.
`CC(=O)O[C@H]1C[C@](C)(O)[C@@]23CC([C@@H](OC(=O)C(C)(C)O)[C@@H](OC(C)=O)C2(COC(=O)c2ccccc2)[C@H]1OC(C)=O)C(C)(C)O3` (stereo not given in full) gave a TGI (HT29 colon) greater than 100 µM, a TGI (HS 578T breast) greater than 100 µM and a TGI (NCI-H23 lung) greater than 100 µM. It also gave a TGI (UO-31 renal) greater than 100 µM, a TGI (SK-MEL-2 melanoma) greater than 100 µM and a TGI (HCT-15 colon) greater than 100 µM. The TGI (COLO 205 colon) was greater than 100 µM, the TGI (MDA-MB-231 breast) was greater than 100 µM and the TGI (DU-145 prostate) was greater than 100 µM.
With `O=C1c2cccnc2-c2nccc3c2c1nc1ccc(Br)cc13` the TGI (HT29 colon) was 0.723 µM, the TGI (NCI-H23 lung) was 0.12 µM and the TGI (UO-31 renal) was 0.202 µM. It also gave a TGI (SK-MEL-2 melanoma) of 0.306 µM, a TGI (HCT-15 colon) of 0.116 µM and a TGI (COLO 205 colon) of 1.6 µM. It also gave a TGI (MDA-MB-231 breast) of 0.211 µM, a TGI (DU-145 prostate) of 0.0577 µM and a TGI (HL-60(TB) leukemia) of 0.0377 µM.
`COc1cccc([C@@H]2CC(=O)c3cc4c(cc3N2)OCO4)c1` showed a TGI (HS 578T breast) greater than 100 µM, a TGI (UO-31 renal) greater than 100 µM and a TGI (SK-MEL-2 melanoma) greater than 100 µM. It also gave a TGI (HCT-15 colon) greater than 100 µM, a TGI (COLO 205 colon) greater than 100 µM and a TGI (MDA-MB-231 breast) greater than 100 µM. For the same molecule, the TGI (DU-145 prostate) was greater than 100 µM.
In the case of `C[C@@]12C[C@@H](c3ccccc3O1)N1Cc3ccccc3CSC1=N2`, the TGI (HT29 colon) is reported as greater than 100 µM, the TGI (HS 578T breast) is reported as greater than 100 µM and the TGI (NCI-H23 lung) is reported as greater than 100 µM. The TGI (UO-31 renal) was greater than 100 µM, the TGI (SK-MEL-2 melanoma) was greater than 100 µM and the TGI (HCT-15 colon) was greater than 100 µM. For the same molecule, the TGI (COLO 205 colon) was greater than 100 µM, the TGI (MDA-MB-231 breast) was greater than 100 µM and the TGI (DU-145 prostate) was greater than 100 µM.
With `COc1cc([C@@H]2c3cc4c(cc3[C@@H](c3c(O)cc(O)c5c3O[C@H](c3ccc(O)c(O)c3)[C@H](OC(=O)c3cc(O)c(O)c(O)c3)C5)[C@H]3COC(=O)[C@H]23)OCO4)cc(OC)c1O` the TGI (HT29 colon) was 65.3 µM, the TGI (HS 578T breast) was greater than 100 µM and the TGI (NCI-H23 lung) was greater than 100 µM. The TGI (SK-MEL-2 melanoma) was greater than 100 µM, the TGI (HCT-15 colon) was greater than 100 µM and the TGI (COLO 205 colon) was 84.1 µM. For the same molecule, the TGI (MDA-MB-231 breast) was greater than 100 µM, the TGI (DU-145 prostate) was greater than 100 µM and the TGI (HL-60(TB) leukemia) was 56.3 µM.
`N#CCc1nc2cc(C(F)(F)F)ccc2s1` was tested, and the TGI (HT29 colon) was greater than 100 µM, the TGI (NCI-H23 lung) was 94.8 µM and the TGI (HCT-15 colon) was greater than 100 µM. The TGI (COLO 205 colon) was greater than 100 µM, the TGI (MDA-MB-231 breast) was greater than 100 µM and the TGI (DU-145 prostate) was greater than 100 µM.
Work on `COc1ccc(N2C(=O)C3c4[nH]c5ccccc5c4C4c5ccccc5CC4C3C2=O)cc1` (stereo not given) yielded a TGI (HT29 colon) greater than 100 µM, a TGI (NCI-H23 lung) greater than 100 µM and a TGI (UO-31 renal) greater than 100 µM. It also gave a TGI (SK-MEL-2 melanoma) greater than 100 µM, a TGI (HCT-15 colon) greater than 100 µM and a TGI (COLO 205 colon) greater than 100 µM. For the same molecule, the TGI (MDA-MB-231 breast) was greater than 100 µM, the TGI (DU-145 prostate) was greater than 100 µM and the TGI (HL-60(TB) leukemia) was greater than 100 µM.
Molecule `OCC1OC(c2ccccc2)CC1O` (stereo not given) has a TGI (HT29 colon) greater than 100 µM, a TGI (UO-31 renal) greater than 100 µM and a TGI (SK-MEL-2 melanoma) greater than 100 µM. The TGI (HCT-15 colon) was greater than 100 µM, the TGI (COLO 205 colon) was greater than 100 µM and the TGI (MDA-MB-231 breast) was greater than 100 µM. For the same molecule, the TGI (DU-145 prostate) was greater than 100 µM and the TGI (HL-60(TB) leukemia) was greater than 100 µM.
With `CO[C@]12CC(=O)C3(C(C[C@H]4CC5CC[C@H]6C[C@@H](OC(C)=O)CC[C@]6(OC(C)=O)C5C[C@@]43C)C1)C1C[C@H]3[C@@H]4CC[C@H]5C[C@@H](OC(C)=O)CC[C@]5(OC(C)=O)[C@H]4CC[C@]3(C)C12` (stereo not given in full) the TGI (HT29 colon) was greater than 100 µM, the TGI (HS 578T breast) was greater than 100 µM and the TGI (NCI-H23 lung) was greater than 100 µM. The TGI (UO-31 renal) was greater than 100 µM, the TGI (SK-MEL-2 melanoma) was greater than 100 µM and the TGI (HCT-15 colon) was greater than 100 µM. The TGI (COLO 205 colon) was greater than 100 µM, the TGI (MDA-MB-231 breast) was greater than 100 µM and the TGI (DU-145 prostate) was greater than 100 µM.
Molecule `CCN(CC)c1ccc2cc(C(N)=O)c(=Nc3ccc(F)cc3)oc2c1` has a TGI (HT29 colon) greater than 100 µM, a TGI (HS 578T breast) greater than 100 µM and a TGI (NCI-H23 lung) greater than 100 µM. The TGI (UO-31 renal) was greater than 100 µM, the TGI (SK-MEL-2 melanoma) was greater than 100 µM and the TGI (HCT-15 colon) was greater than 100 µM. For the same molecule, the TGI (COLO 205 colon) was greater than 100 µM, the TGI (MDA-MB-231 breast) was 88.5 µM and the TGI (HL-60(TB) leukemia) was greater than 100 µM.
For `Cc1ccc2c(=O)cc(Cc3csc4ccccc34)[nH]c2n1`, the TGI (HT29 colon) was greater than 100 µM, the TGI (HS 578T breast) was 46.9 µM and the TGI (NCI-H23 lung) was 53.4 µM. For the same molecule, the TGI (UO-31 renal) was 80.1 µM, the TGI (SK-MEL-2 melanoma) was greater than 100 µM and the TGI (HCT-15 colon) was 55.8 µM. It also gave a TGI (COLO 205 colon) greater than 100 µM, a TGI (MDA-MB-231 breast) greater than 100 µM and a TGI (DU-145 prostate) greater than 100 µM.
`C[N+]1([O-])[C@H]2CC(OC(=O)[C@H](CO)c3ccccc3)C[C@H]1[C@H]1O[C@H]12` (stereo not given in full) showed a TGI (HT29 colon) greater than 100 µM, a TGI (HS 578T breast) greater than 100 µM and a TGI (NCI-H23 lung) greater than 100 µM. For the same molecule, the TGI (UO-31 renal) was greater than 100 µM, the TGI (SK-MEL-2 melanoma) was greater than 100 µM and the TGI (HCT-15 colon) was greater than 100 µM. The TGI (COLO 205 colon) was greater than 100 µM, the TGI (MDA-MB-231 breast) was greater than 100 µM and the TGI (DU-145 prostate) was greater than 100 µM.
In the case of `Cc1c2oc3c(C)cc(F)c(C(=O)NC4C(=O)NC(C(C)C)C(=O)N5CCCC5C(=O)N(C)CC(=O)N(C)C(C(C)C)C(=O)OC4C)c3nc-2c(C(=O)NC2C(=O)NC(C(C)C)C(=O)N3CCCC3C(=O)N(C)CC(=O)N(C)C(C(C)C)C(=O)OC2C)c(N)c1=O` (stereo not given), the GI50 (HS 578T breast) is reported as 0.5 µM, the TGI (HS 578T breast) is reported as greater than 100 µM and the TGI (NCI-H23 lung) is reported as 0.897 µM and 6.26 µM. The GI50 (UO-31 renal) was 0.458 µM, the TGI (UO-31 renal) was 4.65 µM and the TGI (SK-MEL-2 melanoma) was 0.663 µM. The GI50 (HCT-15 colon) was 0.42 µM, the TGI (HCT-15 colon) was greater than 100 µM and the TGI (COLO 205 colon) was 0.286 µM and 0.354 µM. The GI50 (MDA-MB-231 breast) was 0.0186 µM, the TGI (MDA-MB-231 breast) was 6.8 µM and 2.45 µM and the TGI (HL-60(TB) leukemia) was 0.161 µM.
